Measured values as given in patent US9776976B2, “Triazolone compounds and uses thereof” (Inception 2, Inc., priority 2013, dated 2017).
Like-named read-outs stand apart in the source and are kept apart here.

Key:
Assay type in all cases: cell-based
human PPAR γ = biological target: T1, human PPAR γ (Homo sapiens, UniProt P37231); assay: Human PPARγ reporter assay (Indigo Biosciences kit)
T1 sequence (P37231 1-505): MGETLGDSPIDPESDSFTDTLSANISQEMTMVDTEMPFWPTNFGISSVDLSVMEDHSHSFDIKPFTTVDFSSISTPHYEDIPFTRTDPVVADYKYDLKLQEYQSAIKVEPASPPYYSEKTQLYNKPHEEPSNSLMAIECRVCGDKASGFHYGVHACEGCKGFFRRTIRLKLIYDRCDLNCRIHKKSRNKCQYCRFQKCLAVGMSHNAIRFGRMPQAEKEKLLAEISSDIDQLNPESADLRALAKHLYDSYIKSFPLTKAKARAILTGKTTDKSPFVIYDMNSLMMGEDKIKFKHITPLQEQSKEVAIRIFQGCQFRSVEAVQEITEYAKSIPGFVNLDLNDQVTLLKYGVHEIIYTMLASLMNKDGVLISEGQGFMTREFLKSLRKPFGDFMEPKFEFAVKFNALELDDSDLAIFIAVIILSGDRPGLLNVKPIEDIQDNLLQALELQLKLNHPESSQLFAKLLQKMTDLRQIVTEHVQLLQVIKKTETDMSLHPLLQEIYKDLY
Protocol: (§1) Target Selectivity Assays
(§2) To determine species selectivity, a Mouse PPARα Reporter Assay System was used (Indigo Biosciences, Cat. #M00111). Activity of test compounds to antagonize or agonize other isoforms of human PPAR, for example β/δ and γ, were assessed using the corresponding kits from Indigo Biosciences (Cat. #IB00121 and #IB00101, respectively). In addition to PPAR activity, compounds were also screened for activity against other nuclear hormone receptors including Estrogen Receptor β, Glucocorticoid Receptor and Thyroid Receptor β using commercially available kits (Indigo Biosciences, Cat. #IB00411, IB00201 and IB01101, respectively). Each assay system from Indigo Biosciences uses technology analogous to the human PPARα kit, with the variance being that the cells used for each assay were engineered to over-express the receptor of interest. In addition, the appropriate receptor agonist (included with each kit) was used at ˜EC80 for assays in which antagonist potency was being assessed.

Human PPARα = biological target: T2, Human PPARα (Homo sapiens, UniProt Q07869); assay: Human PPARα Reporter Assay (luciferase, Indigo Biosciences); settings: antagonist mode, reporter cells, overnight incubation
T2 construct: host or cells: proprietary non-human mammalian cells
T2 sequence (Q07869 1-468): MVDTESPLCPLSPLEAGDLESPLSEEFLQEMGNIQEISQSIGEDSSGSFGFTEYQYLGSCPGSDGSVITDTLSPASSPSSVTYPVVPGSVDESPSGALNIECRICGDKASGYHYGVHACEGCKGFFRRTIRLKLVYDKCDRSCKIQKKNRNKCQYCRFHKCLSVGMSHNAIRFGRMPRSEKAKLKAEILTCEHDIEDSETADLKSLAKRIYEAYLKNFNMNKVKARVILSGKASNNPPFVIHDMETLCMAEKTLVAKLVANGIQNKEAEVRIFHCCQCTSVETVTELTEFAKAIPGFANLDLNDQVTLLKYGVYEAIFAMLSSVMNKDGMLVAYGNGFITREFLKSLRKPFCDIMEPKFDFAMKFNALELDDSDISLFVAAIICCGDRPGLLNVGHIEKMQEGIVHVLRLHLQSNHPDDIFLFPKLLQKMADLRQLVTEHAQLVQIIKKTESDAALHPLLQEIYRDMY
Protocol: Human PPARα Reporter Assay The screening of test compounds for agonist or antagonist activities against human PPARα receptors was performed using a commercial kit, Human PPARα Reporter Assay System (Indigo Biosciences, Cat. #IB00111). This nuclear receptor assay system utilizes proprietary non-human mammalian cells engineered to provide constitutive, high-level expression of Human PPARα. Because these cells incorporate a PPARα-responsive luciferase reporter gene, quantifying expressed luciferase activity provides a sensitive surrogate measure of PPARα activity in the treated cells. The primary application of this reporter assay system is in the screening of test samples to quantify any functional activity, either agonist or antagonist, that they may exert against human PPARα. […] Briefly, reporter cells are dispensed into wells of the assay plate and then immediately dosed with test compounds. Following an overnight incubation, the treatment media is discarded and Luciferase Detection Reagent (LDR) is added. The intensity of light emission from the ensuing luciferase reaction provides a sensitive measure that is directly proportional to the relative level of PPARα activation in the reporter cells.

human PPAR β/δ = biological target: T3, human PPAR β/δ (Homo sapiens, UniProt Q03181); assay: Human PPAR β/δ reporter assay (luciferase, Indigo Biosciences kit); settings: antagonist mode, agonist at ~EC80; read-out: PPARδ Luciferase IC50
T3 construct: host or cells: engineered reporter cells (analogous to the PPARα kit)
T3 sequence (Q03181 1-441): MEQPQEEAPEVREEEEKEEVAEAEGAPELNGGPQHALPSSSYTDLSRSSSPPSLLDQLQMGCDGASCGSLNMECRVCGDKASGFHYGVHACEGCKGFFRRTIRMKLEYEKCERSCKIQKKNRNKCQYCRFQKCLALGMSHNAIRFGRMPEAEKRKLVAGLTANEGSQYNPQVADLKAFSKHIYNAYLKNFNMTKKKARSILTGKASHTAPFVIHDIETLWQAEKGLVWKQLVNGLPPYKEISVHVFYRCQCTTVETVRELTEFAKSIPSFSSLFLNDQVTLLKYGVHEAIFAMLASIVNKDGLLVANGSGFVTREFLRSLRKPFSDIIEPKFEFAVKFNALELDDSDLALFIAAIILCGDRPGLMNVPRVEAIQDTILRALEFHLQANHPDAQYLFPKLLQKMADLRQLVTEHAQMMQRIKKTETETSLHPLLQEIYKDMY
Protocol: as §1, §2

[1] = antagonist mode, agonist at ~EC80, read-out: PPARγ

| SMILES | IC50 (human PPAR γ; [1]) | IC50 (Human PPARα) | IC50 (human PPAR β/δ) | IC50 (human PPAR γ) |
| --- | --- | --- | --- | --- |
| CCOc1ccc(-c2ccc(CCCc3nn(-c4ccc(C(F)(F)F)cc4)c(=O)n3-c3ccccc3CC)cc2)cc1CC(=O)O [Example 25, 2-(4-ethoxy-4′-(3-(4-(2-ethylphenyl)-5-oxo-1-(4-(trifluoromethyl)phenyl)-4,5-dihydro-1H-1,2,4-triazol-3-yl)propyl)-[1,1′-biphenyl]-3-yl)acetic acid] | 29000 nM | 343 nM | 100 nM | – |
| CCOc1ccc(-c2ccc(CCCc3nn(-c4ccc(C(F)(F)F)cc4)c(=O)n3-c3ccccc3F)cc2)cc1C(=O)O [Example 32, 4-ethoxy-4′-(3-(4-(2-fluorophenyl)-5-oxo-1-(4-(trifluoromethyl)phenyl)-4,5-dihydro-1H-1,2,4-triazol-3-yl)propyl)-[1,1′-biphenyl]-3-carboxylic acid] | 63200 nM | – | – | – |
| CCOc1ccc(-c2ccc(CCCc3nn(-c4ccc(C(F)(F)F)cc4)c(=O)n3CC(C)C)cc2)cc1CC(=O)O [Example 20] | 32900 nM | 150 nM | 363 nM | – |
| CCOc1ccc(-c2ccc(CCCc3nn(-c4ccc(C(F)(F)F)cc4)c(=O)n3C3CCCC(C)C3)cc2)cc1CC(=O)O (stereo not drawn) [Example 6] | 18100 nM | 135 nM | 154 nM | – |
| CCOc1ccc(-c2ccc(CCCc3nn(-c4ccccc4F)c(=O)n3-c3ccc(C(F)(F)F)cc3)cc2)cc1CC(=O)O [Example 36, 2-(4-ethoxy-4′-(3-(1-(2-fluorophenyl)-5-oxo-4-(4-(trifluoromethyl)phenyl)-4,5-dihydro-1H-1,2,4-triazol-3-yl)propyl)-[1,1′-biphenyl]-3-yl)acetic acid] | 79000 nM | – | – | – |
| CCOc1ccc(-c2ccc(CCCc3nn(-c4ccc(C(F)(F)F)cc4)c(=O)n3-c3ccccc3OC)cc2)cc1CC(=O)O [Example 26] | – | – | – | 14900 nM |
| CCOc1ccc(-c2cccc(CCCc3nn(-c4ccc(C(F)(F)F)cc4)c(=O)n3-c3ccccc3F)c2)cc1CC(=O)O [Example 30, 2-(4-ethoxy-3′-(3-(4-(2-fluorophenyl)-5-oxo-1-(4-(trifluoromethyl)phenyl)-4,5-dihydro-1H-1,2,4-triazol-3-yl)propyl)-[1,1′-biphenyl]-3-yl)acetic acid] | 27600 nM | 386 nM | 96 nM | – |
| CCOc1ccc(-c2ccc(CCCc3nn(-c4ccc(C(F)(F)F)cc4)c(=O)n3-c3ccccc3F)cc2C)cc1CC(=O)O [Example 9, 2-(4-ethoxy-4′-(3-(4-(2-fluorophenyl)-5-oxo-1-(4-(trifluoromethyl)phenyl)-4,5-dihydro-1H-1,2,4-triazol-3-yl)propyl)-2′-methyl-[1,1% biphenyl]-3-yl)acetic acid] | 39800 nM | 250 nM | 312 nM | – |
| Cc1cc(CCCc2nn(-c3ccc(C(F)(F)F)cc3)c(=O)n2-c2ccccc2F)ccc1-c1ccc(C(F)(F)F)c(C(=O)O)c1 [Example 10, 4′-(3-(4-(2-fluorophenyl)-5-oxo-1-(4-(trifluoromethyl)phenyl)-4,5-dihydro-1H-1,2,4-triazol-3-yl)propyl)-2′-methyl-(4-trifluoromethyl)-[1,1′-biphenyl-]-3-carboxylic acid] | 28100 nM | 192 nM | 198 nM | – |
| CCOc1ccc(-c2ccc(CCCc3nn(-c4ccc(C(C)(C)C)cc4)c(=O)n3-c3c(Cl)cccc3Cl)cc2)cc1CC(=O)O [Example 28] | 32900 nM | 165 nM | 789 nM | – |
| CCOc1ccc(-c2ccc(CCCc3nn(-c4ccc(C(F)(F)F)cc4)c(=O)n3C3CCCCC3C)cc2)cc1CC(=O)O (stereo not drawn) [Example 7] | 19400 nM | 324 nM | 220 nM | – |
| CCCn1c(CCCc2ccc(-c3ccc(OCC)c(CC(=O)O)c3)cc2)nn(-c2ccc(C(F)(F)F)cc2)c1=O [Example 3, 2-(4-ethoxy-4′-(3-(5-oxo-4-propyl-1-(4-(trifluoromethyl)phenyl)-4,5-dihydro-1H-1,2,4-triazol-3-yl)propyl)-[1,1′-biphenyl]-3-yl)acetic acid] | 50000 nM | 113 nM | 474 nM | – |
| CCOc1ccc(-c2cccc(CCCc3nn(-c4ccc(C(F)(F)F)cc4)c(=O)n3C(C)C)c2)cc1CC(=O)O [Example 31] | 56900 nM | 199 nM | 742 nM | – |
| CCOc1ccc(-c2ccc(CCCc3nn(-c4ccc(C(C)C)cc4)c(=O)n3-c3ccccc3Cl)cc2)cc1CC(=O)O [Example 27, 2-(4′-(3-(4-(2-chlorophenyl)-1-(4-isopropylphenyl)-5-oxo-4,5-dihydro-1H-1,2,4-triazol-3-yl)propyl)-4-ethoxy-[1,1′-biphenyl-]-3-yl)acetic acid] | 28900 nM | 28 nM | 236 nM | – |
| CCCOc1ccc(-c2ccc(CCCc3nn(-c4ccc(C(F)(F)F)cc4)c(=O)n3-c3ccccc3F)cc2)cc1CC(=O)O [Example 39, 2-(4-propoxy-4′-(3-(4-(2-fluorophenyl)-5-oxo-1-(4-(trifluoromethyl)phenyl)-4,5-dihydro-1H-1,2,4-triazol-3-yl)propyl)-[1,1′-biphenyl-]-3-yl)acetic acid] | 20000 nM | 111 nM | 34 nM | – |
| COc1ccc(-c2ccc(CCCc3nn(-c4ccc(C(F)(F)F)cc4)c(=O)n3C3CC3)cc2)cc1CC(=O)O [Example 14, 2-(4′-(3-(4-cyclopropyl-5-oxo-1-(4-(trifluoromethyl)phenyl)-4,5-dihydro-1H-1,2,4-triazol-3-yl)propyl)-4-methoxy-[1,1′-biphenyl]-3-yl)acetic acid] | 53100 nM | 108 nM | 697 nM | – |
| CCOc1ccc(-c2ccc(CCCc3nn(-c4ccc(OC(F)(F)F)cc4)c(=O)n3C3CCCCC3)cc2)cc1CC(=O)O [Example 8, 2-(4′-(3-(4-cyclohexyl-5-oxo-1-(4-(trifluoromethoxy)phenyl)-4,5-dihydro-1H-1,2,4-triazol-3-yl)propyl)-4-ethoxy-[1,1% biphenyl]-3-yl)acetic acid] | 27100 nM | 29 nM | 505 nM | – |
| CCCOc1ccc(-c2ccc(CCCc3nn(-c4ccc(C(F)(F)F)cc4)c(=O)n3C3CC3)cc2)cc1CC(=O)O [Example 17, 2-(4′-(3-(4-cyclopropyl-5-oxo-1-(4-(trifluoromethyl)phenyl)-4,5-dihydro-1H-1,2,4-triazol-3-yl)propyl)-4-propoxy-[1,1′-biphenyl-]-3-yl)acetic acid] | 30700 nM | 43 nM | 485 nM | – |
| CCOc1ccc(-c2ccc(CCCc3nn(-c4ccc(C(F)(F)F)cc4)c(=O)n3-c3cccc(F)c3)cc2)cc1CC(=O)O [Example 21] | 55200 nM | 30 nM | 67 nM | – |
